*1 amine or outer side, *2 acyl side, *3 side chain or, on linkers, in order; H or OH if unused. Where a SMILES comes first, the peptide text is derived from it. Bridges are numbered along the chain shown (N, C = ends). [ ]: non-standard residue; d: D form. Phe(3R-OH) = O=C([C@@H](N[*:1])[C@H](O[*:3])c1ccccc1)[*:2]; Phe(4-NO2) = N[C@@H](Cc1ccc([N+](=O)[O-])cc1)C(=O)O; Asn(3S-OH) = NC(=O)[C@@H](O)[C@H](N)C(=O)O; Leu(3R-OH) = CC(C)[C@@H](O)[C@H](N)C(=O)O; aThr = C[C@H](O)[C@H](N)C(=O)O
Experiments:
[1] = system: Staphylococcus aureus 133; assay type: cell-based; conditions: 133
[2] = system: Streptococcus pneumoniae G9a; assay type: cell-based; conditions: G9a
E. faecium L4001 = assay type: cell-based, Enterococcus faecium; conditions: L4001
E. faecalis ICB 27159 = assay type: cell-based, Enterococcus faecalis; conditions: ICB 27159

CC[C@H](C)[C@@H]1NC(=O)[C@@H](CCCNC(=N)N)NC(=O)[C@H](CC(C)C)NC(=O)[C@H]([C@H](O)C(C)C)NC(=O)[C@@H](NC(=O)[C@H](Cc2ccc([N+](=O)[O-])cc2)NC(=O)[C@H](N)Cc2ccccc2)[C@@H](c2ccccc2)OC(=O)[C@H](CO)NC(=O)[C@H]([C@H](O)C(N)=O)NC(=O)CNC(=O)[C@H]([C@H](C)O)NC1=O.O=C(O)C(F)(F)F.O=C(O)C(F)(F)F [Example 81, D-Phenylalanyl-4-nitro-L-phenylalanyl-de(1-D-leucyl-2-L-leucyl)lysobactine bistrifluoroacetate] (H-[dF][Phe(4-NO2)][Phe(3R-OH)][Leu(3R-OH)]L[dR]I[aThr]G[Asn(3S-OH)]S; ester 3-C)
MIC S. aureus 133 [1]: 0.5 µg/mL
MIC S. pneumoniae [2]: 0.25 µg/mL
MIC E. faecium L4001 (E. faecium L4001): 0.25 µg/mL
MIC E. faecalis ICB 27159 (E. faecalis ICB 27159): 0.25 µg/mL

Source: patent publication US7368424B2, “Acylated nonadepsipeptides” (AiCuris GmbH & Co. KG, priority 2003, dated 2008)
